The values that follow come from PubChem BioAssay AID1195 (EPA DSSTox, 2008).

SMILES strings stand for the structures.

In the data set the test system is human maximum recommended daily dose, FDA database. Kind of data set: DSSTox (FDAMDD) FDA Maximum (Recommended) Daily Dose Database. The note with it: stronger effect = lower value. The source says: The Food and Drug Administration (FDA) Center for Drug Evaluation and Research, Office of Pharmaceutical Science, Informatics and Computational Safety Analysis Staff's Maximum Recommended Daily Dose (FDAMDD) database contains values for over 1200 pharmaceuticals listed in Martindale: The Extra Pharmacopoeia (1973, 1983, and 1993) and The Physicians' Desk Reference (1995 and 1999). Some classes of chemicals were excluded from the FDAMDD database due to their unsuitability for most QSAR modeling programs. These were inorganic chemicals, high molecular weight polymers (>5000 Daltons), fibers, salts, mixtures of organic chemicals, and small molecules (<100 Daltons). FDAMDD is the non-proprietary portion of the database that was used in the QSAR analysis reported in the Main Citation. DSSTox FDAMDD has fewer substance records than the original MRDD Source database due to consolidation of partial structures (i.e., complexed entities) into a single record and elimination of duplicate entries. DSSTox FDAMDD also differs from the MRDD Source database in presenting complete structural information pertaining to the actual salt or complexed form corresponding to the listed ChemicalName and CASRN. According to the Source authors, there are a number of cases where multiple related forms or derivatives of a drug were listed as separate records but were assumed to fall under the same clinical toxicity assessment and, therefore, assigned the same Dose_MRDD_mg activity value. For the DSSTox FDAMDD, we have labeled these derivatives in the ChemClass_MRDD_grouping field and provide their counts in the ChemicalReplicateCount field to highlight their special nature.
Maximum recommended daily dose (or maximum recommended therapeutic dose) values were determined from pharmaceutical clinical trials that employed an oral route of exposure and daily treatments, usually for 3-12 months. Drugs were given as single or divided dose treatment regimens to achieve desired pharmacological effects. Roughly 5% of the pharmaceuticals in the FDAMDD data file were antineoplastics and anesthetics and were administered intravenously and/or intramuscularly. When separate MRDDs were reported for different routes of exposure, only the oral MRDD was included in the data file and only MRDD values reported for the average adult patient were used. Pharmaceuticals that are administered orally are usually tested over a limited range of doses and have MRDDs reported as mg/day. The mg/day unit was converted to mg/kg-body weight (bw)/day based upon an average adult weighing 60 kg. In contrast, the dose unit for most antineoplastic drug MRDDs is reported as mg/m2 which was converted to mg/kg-bw/day using the formula mg/kg-bw/day = mg/m2/37 for an average adult. Additionally, a few drugs had MRDDs reported in parts per million (ppm) which were converted to mg/kg-bw/day on the basis that 1000 ppm equals 25 mg/kg-bw/day for an average 60 kg adult. Activity Score is mapping of LOG10(1/Dose_MRDD_mmol) spanning activity range [MIN, MAX] onto Integer 1-100 Activity range, where 100 is highest potency and 1 is lowest potency: ActivityScore = 100 * INTEGER[(LOGINV_MRDD_mmol - MIN)/(MAX […] MIN)]. Activity Outcome is "active" for all substances, since Dose_MRDD_mmol is reported for all substances.

Setting [1] is: TherapeuticCategory: antiulcerative.
[2] abbreviates: TherapeuticCategory: antineoplastic.
[3] abbreviates: TherapeuticCategory: antipsychotic.
[4] abbreviates: TherapeuticCategory: anesthetic.
The mark [5] stands for this setting: TherapeuticCategory: bronchodilator.
Setting [6] is: TherapeuticCategory: skeletal muscle relaxant.
Where [7] appears, read: TherapeuticCategory: antidepressant.
[8] abbreviates: TherapeuticCategory: anti inflammatory.
Where [9] appears, read: TherapeuticCategory: antibacterial.

`CCOC(=O)[C@H](CCc1ccccc1)N[C@@H](C)C(=O)N1Cc2cc(OC)c(OC)cc2C[C@H]1C(=O)O`: the maximum recommended daily dose (mmol/kg-bw/day) (TherapeuticCategory: antihypertensive, ACE inhibitor) was 0.00167.
`O=C(O)CCC(=O)O`: the maximum recommended daily dose (mmol/kg-bw/day) under setting [1] is 0.847.
For `N[C@@H](Cc1cc(I)c(Oc2ccc(O)c(I)c2)c(I)c1)C(=O)O`, the maximum recommended daily dose (mmol/kg-bw/day) (TherapeuticCategory: thyroid hormone) was 2.57e-06.
For the compound `COc1cccc2c1C(=O)c1c(O)c3c(c(O)c1C2=O)C[C@@](O)(/C(C)=N/NC(=O)c1ccccc1)C[C@@H]3O[C@H]1C[C@H](N)[C@H](O)[C@H](C)O1`, the maximum recommended daily dose (mmol/kg-bw/day) under setting [2] is 0.0103.
Turning to `C[C@]1(O)CC[C@H]2[C@@H]3CCC4=CC(=O)CC[C@@H]4[C@H]3CC[C@@]21C`, under “TherapeuticCategory: androgen”, the maximum recommended daily dose (mmol/kg-bw/day) was 0.00173.
As to `O=c1[nH]c2ccccc2n1C1CCN(CCCC(c2ccc(F)cc2)c2ccc(F)cc2)CC1`, under setting [3], the maximum recommended daily dose (mmol/kg-bw/day) is 0.000362.
Regarding `CC(CC(C)(C)O)OC(O)C(Cl)(Cl)Cl` (stereo not drawn), the maximum recommended daily dose (mmol/kg-bw/day) (TherapeuticCategory: hypnotic) was 0.101.
In the case of `CCN(CC)CCOC(=O)C(O)(c1ccccc1)c1ccccc1`, the maximum recommended daily dose (mmol/kg-bw/day) (TherapeuticCategory: antidepressant, anticholinergic) is 0.000458.
Take `CCCCc1ncc(/C=C(\Cc2cccs2)C(=O)O)n1Cc1ccc(C(=O)O)cc1`: the maximum recommended daily dose (mmol/kg-bw/day) (TherapeuticCategory: antihypertensive) is 0.0313.
For the compound `C[C@H]1O[C@@H](O[C@H]2CC[C@@]3(C)[C@H](CC[C@@H]4[C@@H]3C[C@@H](O)[C@]3(C)[C@@H](C5=CC(=O)OC5)CC[C@]43O)C2)C[C@H](O)[C@@H]1O[C@H]1C[C@H](O)[C@H](O[C@H]2C[C@H](O)[C@H](O[C@@H]3O[C@H](CO)[C@@H](O)[C@H](O)[C@H]3O)[C@@H](C)O2)[C@@H](C)O1`, the maximum recommended daily dose (mmol/kg-bw/day) (TherapeuticCategory: cardiotonic) was 8.48e-08.
With `C=CCN1C(=O)C(CC(C)C)NC1=S` (stereo not drawn), the maximum recommended daily dose (mmol/kg-bw/day) (TherapeuticCategory: anticonvulsant) was 0.188.
In the case of `OCC(Br)(Br)Br`, the maximum recommended daily dose (mmol/kg-bw/day) under setting [4] is 0.354.
In the case of `C1CCN2C[C@@H]3C[C@@H](CN4CCCC[C@@H]34)[C@H]2C1`, the maximum recommended daily dose (mmol/kg-bw/day) (TherapeuticCategory: oxytocic) was 0.0427.
`Cn1c(=O)c2c(ncn2CCO)n(C)c1=O`: the maximum recommended daily dose (mmol/kg-bw/day) under setting [5] was 0.0372.
`C=CC[C@]1(O)CC[C@H]2[C@@H]3CCC4=CCCC[C@@H]4[C@H]3CC[C@@]21C`: the maximum recommended daily dose (mmol/kg-bw/day) (TherapeuticCategory: progestogen) is 0.000832.
Consider `Cc1cc(C)cc(OCC2CNC(=O)O2)c1` (stereo not drawn), for which the maximum recommended daily dose (mmol/kg-bw/day) under setting [6] is 0.484.
Turning to `CN(C)CCN1C(=O)c2ccccc2N(C)c2ccccc21`, under setting [7], the maximum recommended daily dose (mmol/kg-bw/day) is 0.0406.
As to `O=c1[nH]c(=S)[nH]cc1I`, the maximum recommended daily dose (mmol/kg-bw/day) (TherapeuticCategory: thyroid inhibitor) is 0.0197.
Turning to `CC(C)NCC1CCc2cc(CO)c([N+](=O)[O-])cc2N1` (stereo not drawn), the maximum recommended daily dose (mmol/kg-bw/day) (TherapeuticCategory: anthelmintic) is 0.215.
Regarding `Cn1c(=O)c2c(ncn2CCCNCC(O)c2cc(O)cc(O)c2)n(C)c1=O` (stereo not drawn), under setting [5], the maximum recommended daily dose (mmol/kg-bw/day) is 0.00257.
On to `C=CCC1(C(C)C#CCC)C(=O)NC(=O)N(C)C1=O` (stereo not drawn), for which the maximum recommended daily dose (mmol/kg-bw/day) under setting [4] is 0.00762.
As to `O=c1[nH]c(=O)n(C2CCCO2)cc1F` (stereo not drawn) (tested in a mixture with another compound), the maximum recommended daily dose (mmol/kg-bw/day) under setting [2] is 0.0641.
In the case of `C[N+](C)(C)CCCCCCCCCC[N+](C)(C)C`, the maximum recommended daily dose (mmol/kg-bw/day) under setting [6] is 9.97e-05.
Turning to `COc1cc(C[C@@H]2NCCc3cc(O)c(O)cc32)cc(OC)c1OC`, under setting [5], the maximum recommended daily dose (mmol/kg-bw/day) was 0.000869.
Turning to `CC(C)(C)NCC(O)c1cc(Cl)c(N)c(Cl)c1` (stereo not drawn), the maximum recommended daily dose (mmol/kg-bw/day) (TherapeuticCategory: antiasthmatic) is 3.61e-06.
For the compound `NC(=O)[C@@H]1CCCN1C(=O)[C@H](Cc1cnc[nH]1)NC(=O)[C@@H]1CCC(=O)N1`, the maximum recommended daily dose (mmol/kg-bw/day) (TherapeuticCategory: prohormone) was 2.3e-05.
Consider `CCC(=O)c1ccc(O)cc1`, for which the maximum recommended daily dose (mmol/kg-bw/day) (TherapeuticCategory: pituitary gonadotrophic hormone inhibitor) was 0.333.
On to `CN1CCN(CCCN2c3ccccc3Sc3ccc(S(=O)(=O)N(C)C)cc32)CC1`, for which the maximum recommended daily dose (mmol/kg-bw/day) (TherapeuticCategory: neuroleptic, antiemetic) is 0.00149.
As to `Cc1cc2c(s1)Nc1ccccc1N=C2N1CCN(C)CC1`, the maximum recommended daily dose (mmol/kg-bw/day) under setting [3] was 0.0008.
For the compound `C[C@](O)(CS(=O)(=O)c1ccc(F)cc1)C(=O)Nc1ccc(C#N)c(C(F)(F)F)c1`, the maximum recommended daily dose (mmol/kg-bw/day) (TherapeuticCategory: antiandrogen, antineoplastic) is 0.00194.
With `Nc1c(Br)cc(Br)cc1CNC1CCC(O)CC1` (stereo not drawn), where the note is “TherapeuticCategory: expectorant”, the maximum recommended daily dose (mmol/kg-bw/day) is 0.00529.
Turning to `CC(C(=O)O)c1ccc2c(c1)Cc1cccnc1O2` (stereo not drawn), the maximum recommended daily dose (mmol/kg-bw/day) under setting [8] is 0.0147.
For the compound `O=C(OCCN1CCCCC1)C(O)(c1ccccc1)c1ccccc1`, the maximum recommended daily dose (mmol/kg-bw/day) (TherapeuticCategory: anticholinergic, antispasmodic) is 0.00392.
With `NC(N)=Nc1nc(CSCC/C(N)=N/S(N)(=O)=O)cs1`, under setting [1], the maximum recommended daily dose (mmol/kg-bw/day) is 0.00198.
Consider `COC1=CC(=O)C[C@@H](C)[C@]12Oc1c(Cl)c(OC)cc(OC)c1C2=O`, for which the maximum recommended daily dose (mmol/kg-bw/day) (TherapeuticCategory: antifungal) was 0.0354.
In the case of `C[C@]12CC[C@H]3[C@@H](CC[C@@]45O[C@@H]4C(O)=C(C#N)C[C@]35C)[C@@H]1CC[C@@H]2O`, the maximum recommended daily dose (mmol/kg-bw/day) (TherapeuticCategory: adrenocortical suppressant, treatment of breast cancer) is 0.0243.
On to `OCc1cccnc1`, for which the maximum recommended daily dose (mmol/kg-bw/day) (TherapeuticCategory: vasodilator) was 0.0458.
For `CN(C)[C@@H]1C(=O)C(C(N)=O)=C(O)[C@@]2(O)C(=O)C3=C(O)c4c(O)cccc4[C@@](C)(O)[C@H]3C[C@@H]12`, where the note is “TherapeuticCategory: antiamebic, antibacterial, antirickettsial”, the maximum recommended daily dose (mmol/kg-bw/day) was 0.0749.
For `Nc1ccn([C@@H]2O[C@H](CO)[C@@H](O)C2O)c(=O)n1` (stereo partly drawn), under “TherapeuticCategory: antineoplastic, antiviral”, the maximum recommended daily dose (mmol/kg-bw/day) was 0.0111.
Take `O=C1NC(=O)[C@@]2(CCOc3ccc(F)cc32)N1`: the maximum recommended daily dose (mmol/kg-bw/day) (TherapeuticCategory: none) is 0.0177.
With `NCCCCCC(=O)O`, for the setting “TherapeuticCategory: hemostatic”, the maximum recommended daily dose (mmol/kg-bw/day) is 1.52.
As to `NCC[C@H](O)C(=O)N[C@@H]1C[C@H](N)[C@@H](O[C@H]2O[C@H](CN)[C@@H](O)[C@H](O)[C@H]2O)[C@H](O)[C@H]1O[C@H]1O[C@H](CO)[C@@H](O)[C@H](N)[C@H]1O`, under setting [9], the maximum recommended daily dose (mmol/kg-bw/day) is 0.0256.
For `CC(=O)[C@H]1CC[C@H]2[C@@H]3CC[C@H]4C[C@H](O)CC[C@]4(C)[C@H]3C(=O)C[C@]12C`, the maximum recommended daily dose (mmol/kg-bw/day) under setting [4] was 0.00203.
As to `CC[N+](CC)(CCNC(=O)C(=O)NCC[N+](CC)(CC)Cc1ccccc1Cl)Cc1ccccc1Cl`, the maximum recommended daily dose (mmol/kg-bw/day) (TherapeuticCategory: cholinesterase inhibitor) is 0.00274.
As to `CCn1ccc(NS(=O)(=O)c2ccc(N)cc2)nc1=O`, under setting [9], the maximum recommended daily dose (mmol/kg-bw/day) is 0.0567.
Same read-out and setting: then `Cc1onc(-c2c(Cl)cccc2Cl)c1C(=O)N[C@@H]1C(=O)N2[C@@H]1SC(C)(C)[C@@H]2C(=O)O`, with 0.0355.
Take `Nc1nc2c(c(=O)[nH]1)N(C=O)C(CNc1ccc(C(=O)NC(CCC(=O)O)C(=O)O)cc1)CN2` (stereo not drawn): under “TherapeuticCategory: antidote to folic acid antagonists, antianemic”, the maximum recommended daily dose (mmol/kg-bw/day) is 0.0114.
Regarding `CN1c2ccccc2Sc2ccc(CC(=O)O)cc21`, under setting [8], the maximum recommended daily dose (mmol/kg-bw/day) was 0.0461.
With `C=CCOc1ccc(CC(=O)O)cc1Cl`, the maximum recommended daily dose (mmol/kg-bw/day) (TherapeuticCategory: analgesic, antipyretic, anti inflammatory) was 0.00737.
In the case of `Clc1ccc2c(c1)C(N1CCNCC1)=Nc1ccccc1O2`, the maximum recommended daily dose (mmol/kg-bw/day) under setting [7] is 0.0319.
For the compound `CC(=O)Nc1ccc(/C=N/NC(N)=S)cc1`, the maximum recommended daily dose (mmol/kg-bw/day) under setting [9] was 0.0106.
Consider `NC(=O)C1CCN(CCCN2c3ccccc3Sc3ccc(Cl)cc32)CC1`, for which the maximum recommended daily dose (mmol/kg-bw/day) (TherapeuticCategory: antiemetic) was 0.000622.
Turning to `CC1=C(C/C=C(\C)CCC[C@H](C)CCC[C@H](C)CCCC(C)C)C(=O)c2ccccc2C1=O`, the maximum recommended daily dose (mmol/kg-bw/day) (TherapeuticCategory: prothrombogenic vitamin) was 0.000925.
